# Measured values published in US5550212A, “Analogues of hGH-RH(1-29)NH2 having antagonistic activity” (The Administrators of the Tulane Educational Fund, priority 1993, dated 1996).
# Starred links: 1 amine or outer side, 2 acyl side, 3 side chain; linkers in the order of their positions; H or OH if unused. Non-standard residues stand in square brackets, D forms with d. Residues, ends and D or L forms follow the SMILES beside them. *: point of attachment. Acetyl(1-naphthyl) = O=C(Cc1cccc2ccccc12)*; Tpi = O=C(O)[C@@H]1Cc2c([nH]c3ccccc23)CN1; Phe(4-Cl) = N[C@@H](Cc1ccc(Cl)cc1)C(=O)O; Glutaryl = O=C(CCCC(=O)[*:2])[*:1]; Isobutyryl = CC(C)C(=O)*; Nle = CCCC[C@H](N)C(=O)O; Abu = CC[C@H](N)C(=O)O; Aib = CC(C)(N)C(=O)O; X2 = O=C(CI)*
# Biological target: T1, rat pituitary GH-RH receptors (Rattus norvegicus, UniProt Q02644)
# T1 construct: from tissue; host or cells: rat anterior pituitary (male Sprague-Dawley), crude membranes
# T1 sequence (Q02644 23-464): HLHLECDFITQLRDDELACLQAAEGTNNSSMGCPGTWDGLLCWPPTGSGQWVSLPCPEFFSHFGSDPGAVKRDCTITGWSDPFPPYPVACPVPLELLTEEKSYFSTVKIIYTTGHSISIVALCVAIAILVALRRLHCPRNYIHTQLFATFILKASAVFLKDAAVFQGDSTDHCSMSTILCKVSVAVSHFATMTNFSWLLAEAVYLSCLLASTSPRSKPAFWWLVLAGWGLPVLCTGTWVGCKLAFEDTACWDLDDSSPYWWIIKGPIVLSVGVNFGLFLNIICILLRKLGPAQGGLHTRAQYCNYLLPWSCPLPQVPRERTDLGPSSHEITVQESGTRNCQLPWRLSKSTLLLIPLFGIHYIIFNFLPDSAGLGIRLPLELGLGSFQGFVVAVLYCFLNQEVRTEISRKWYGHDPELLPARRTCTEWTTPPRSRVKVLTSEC
# Experiment: GH-RH binding assay, competitive binding on rat anterior pituitary membrane homogenates
# Conditions: competition with labelled [His1,Nle27]hGH-RH(1-32)NH2
# Description: GH-RH Binding Assay. A sensitive radioreceptor binding assay was developed to determine the binding characteristics of the antagonists of GH-RH (G. Halmos, A. V. Schally et al., Receptor 3, 87-97, 1993), hereby incorporated by reference. The assay is based on binding of labelled [His^1,Nle^27 ]hGH-RH(1-32)NH2 to rat anterior pituitary membrane homogenates. Iodinated derivatives of [His^1,Nle^27 ]hGH-RH(1-32)NH2 are prepared by the chloramine-T method (F. C. Greenwood et al., Biochemistry 89:114-123, 1963), hereby incorporated by reference. Pituitaries from male Sprague-Dawley rats (250-300 g) are used to prepare crude membranes. For saturation binding analyses, membrane homogenates are incubated with at least 6 concentrations of [His^1,^25 I-Tyr^10,Nle^27 ]hGH-RH(1-32)NH2, ranging from 0.005 to 0.35 nM in the presence or absence of excess unlabelled peptide (1 μM). The pellet is counted for radioactivity in a y-counter. The affinities of the antagonist peptides tested to rat pituitary GH-RH receptors are determined in competitive binding experiments. The final binding affinities are estimated by Ki (dissociation constant of the inhibitor-receptor complex) and are determined by the Ligand PC computer program of Munson and Rodbard as modified by McPherson. Relative affinities compared to [Ac-Tyr^1,D-Arg^2 ]hGH-RH(1-29)NH2, the Standard antagonist, are calculated as the ratio of Ki of the tested GH-RH antagonist to the Ki of the Standard antagonist.
row,Structure (SMILES),Ki
1,"CCCC[C@H](NC(=O)[C@@H](NC(=O)[C@H](CC(=O)O)NC(=O)[C@H](CCC(N)=O)NC(=O)[C@H](CC(C)C)NC(=O)[C@H](CC(C)C)NC(=O)[C@H](CCCCN)NC(=O)[C@H](CCCNC(=N)N)NC(=O)[C@H](C)NC(=O)[C@H](CO)NC(=O)[C@H](CC(C)C)NC(=O)[C@H](CCC(N)=O)NC(=O)[C@H](CC)NC(=O)[C@H](CC(C)C)NC(=O)[C@@H](NC(=O)[C@H](CCCCN)NC(=O)[C@H](CCCNC(=N)N)NC(=O)[C@H](Cc1ccc(O)cc1)NC(=O)[C@H](CO)NC(=O)[C@H](CC(N)=O)NC(=O)[C@@H](NC(=O)[C@H](Cc1ccc(Cl)cc1)NC(=O)[C@@H](NC(=O)[C@H](C)NC(=O)[C@H](CC(=O)O)NC(=O)[C@@H](CCCNC(=N)N)NC(=O)[C@H](Cc1c[nH]cn1)NC(=O)Cc1cccc2ccccc12)[C@@H](C)CC)[C@@H](C)O)C(C)C)[C@@H](C)CC)C(=O)N[C@@H](CO)C(=O)N[C@@H](CCCNC(=N)N)C(N)=O [Peptide 5, [Nac^0 -His^1,D-Arg^2,Phe(pCl)^6,Abu^15, Nle^27]hGH-RH(1-29)NH2] ({Acetyl(1-naphthyl)}-H[dR]DAI[Phe(4-Cl)]TNSYRKVL[Abu]QLSARKLLQDI[Nle]SR-NH2)",0.05 ± 0.01 nM
2,CCCC[C@H](NC(=O)[C@@H](NC(=O)[C@H](CC(=O)O)NC(=O)[C@H](CCC(N)=O)NC(=O)[C@H](CC(C)C)NC(=O)[C@H](CC(C)C)NC(=O)[C@H](CCCCN)NC(=O)[C@H](CCCNC(=N)N)NC(=O)[C@H](C)NC(=O)[C@H](CO)NC(=O)[C@H](CC(C)C)NC(=O)[C@H](CCC(N)=O)NC(=O)[C@H](CC)NC(=O)[C@H](CC(C)C)NC(=O)[C@@H](NC(=O)[C@H](CCCCN)NC(=O)[C@H](CCCNC(=N)N)NC(=O)[C@H](Cc1ccc(O)cc1)NC(=O)[C@H](CO)NC(=O)[C@H](CC(N)=O)NC(=O)[C@@H](NC(=O)[C@H](Cc1ccc(Cl)cc1)NC(=O)[C@@H](NC(=O)[C@H](C)NC(=O)[C@H](CC(=O)O)NC(=O)[C@@H](CCCNC(=N)N)NC(=O)[C@H](CCC(=O)O)NC(=O)C(C)C)[C@@H](C)CC)[C@@H](C)O)C(C)C)[C@@H](C)CC)C(=O)N[C@@H](CO)C(=O)N[C@@H](CCCNC(=N)N)C(N)=O [Peptide 7] (Isobutyryl-E[dR]DAI[Phe(4-Cl)]TNSYRKVL[Abu]QLSARKLLQDI[Nle]SR-NH2),1.35 ± 0.02 nM
3,CCCC[C@H](NC(=O)[C@@H](NC(=O)[C@H](CC(=O)O)NC(=O)[C@H](CCC(N)=O)NC(=O)[C@H](CC(C)C)NC(=O)[C@H](CC(C)C)NC(=O)[C@H](CCCCN)NC(=O)[C@H](CCCNC(=N)N)NC(=O)[C@H](C)NC(=O)[C@H](CO)NC(=O)[C@H](CC(C)C)NC(=O)[C@H](CCC(N)=O)NC(=O)[C@H](CC)NC(=O)[C@H](CC(C)C)NC(=O)[C@@H](NC(=O)[C@H](CCCCN)NC(=O)[C@H](CCCNC(=N)N)NC(=O)[C@H](Cc1ccc(O)cc1)NC(=O)[C@H](CO)NC(=O)[C@H](CC(N)=O)NC(=O)[C@@H](NC(=O)[C@H](Cc1ccc(Cl)cc1)NC(=O)[C@@H](NC(=O)[C@H](C)NC(=O)[C@H](CC(=O)O)NC(=O)[C@@H](CCCNC(=N)N)NC(=O)[C@H](CCC(=O)O)NC(=O)Cc1cccc2ccccc12)[C@@H](C)CC)[C@@H](C)O)C(C)C)[C@@H](C)CC)C(=O)N[C@@H](CO)C(=O)N[C@@H](CCCNC(=N)N)C(N)=O [Peptide 9] ({Acetyl(1-naphthyl)}-E[dR]DAI[Phe(4-Cl)]TNSYRKVL[Abu]QLSARKLLQDI[Nle]SR-NH2),0.87 ± 0.1 nM
4,"CCCC[C@H](NC(=O)[C@@H](NC(=O)[C@H](CC(=O)O)NC(=O)[C@H](CCC(N)=O)NC(=O)[C@H](CC(C)C)NC(=O)[C@H](CC(C)C)NC(=O)[C@H](CCCCN)NC(=O)[C@H](CCCNC(=N)N)NC(=O)[C@H](C)NC(=O)[C@H](CO)NC(=O)[C@H](CC(C)C)NC(=O)[C@H](CCC(N)=O)NC(=O)[C@H](CC)NC(=O)[C@H](CC(C)C)NC(=O)[C@@H](NC(=O)[C@H](CCCCN)NC(=O)[C@H](CCCNC(=N)N)NC(=O)[C@H](Cc1ccc(O)cc1)NC(=O)[C@H](CO)NC(=O)[C@H](CC(N)=O)NC(=O)[C@@H](NC(=O)[C@@H]1Cc2c([nH]c3ccccc23)CN1C(=O)[C@@H](NC(=O)[C@H](C)NC(=O)[C@H](CC(=O)O)NC(=O)[C@@H](CCCNC(=N)N)NC(=O)CCCC(=O)O)[C@@H](C)CC)[C@@H](C)O)C(C)C)[C@@H](C)CC)C(=O)N[C@@H](CO)C(=O)N[C@@H](CCCNC(=N)N)C(N)=O [Peptide 12, [Glt^1,D-Arg^2,Tpi^6,Abu^15,Nle^27]hGH-RH(1-29)NH2] (Glutaryl-[dR]DAI[Tpi]TNSYRKVL[Abu]QLSARKLLQDI[Nle]SR-NH2)",0.3 ± 0.15 nM

# More lines, in order of falling Ki, values ahead:
row,Ki,Structure (SMILES)
1,0.91 ± 0.01 nM,CCCC[C@H](NC(=O)[C@@H](NC(=O)[C@H](CC(=O)O)NC(=O)[C@H](CCC(N)=O)NC(=O)[C@H](CC(C)C)NC(=O)[C@H](CC(C)C)NC(=O)[C@H](CCCCN)NC(=O)[C@H](CCCNC(=N)N)NC(=O)[C@H](C)NC(=O)[C@H](CO)NC(=O)[C@H](CC(C)C)NC(=O)[C@H](CCC(N)=O)NC(=O)[C@H](CC)NC(=O)[C@H](CC(C)C)NC(=O)[C@@H](NC(=O)[C@H](CCCCN)NC(=O)[C@H](CCCNC(=N)N)NC(=O)[C@H](Cc1ccc(O)cc1)NC(=O)[C@H](CO)NC(=O)[C@H](CC(N)=O)NC(=O)[C@@H](NC(=O)[C@H](Cc1ccc(Cl)cc1)NC(=O)[C@@H](NC(=O)[C@H](C)NC(=O)[C@H](CC(=O)O)NC(=O)[C@@H](CCCNC(=N)N)NC(=O)[C@H](CCC(=O)O)NC(=O)CI)[C@@H](C)CC)[C@@H](C)O)C(C)C)[C@@H](C)CC)C(=O)N[C@@H](CO)C(=O)N[C@@H](CCCNC(=N)N)C(N)=O [Peptide 8] (X2-E[dR]DAI[Phe(4-Cl)]TNSYRKVL[Abu]QLSARKLLQDI[Nle]SR-NH2)
2,0.78 ± 0.06 nM,"CCCC[C@H](NC(=O)[C@@H](NC(=O)[C@H](CC(=O)O)NC(=O)[C@H](CCC(N)=O)NC(=O)[C@H](CC(C)C)NC(=O)[C@H](CC(C)C)NC(=O)[C@H](CCCCN)NC(=O)[C@H](CCCNC(=N)N)NC(=O)[C@H](C)NC(=O)[C@H](CO)NC(=O)[C@H](CC(C)C)NC(=O)[C@H](CCC(N)=O)NC(=O)[C@H](CC)NC(=O)[C@H](CC(C)C)NC(=O)[C@@H](NC(=O)[C@H](CCCCN)NC(=O)[C@H](CCCNC(=N)N)NC(=O)[C@H](Cc1ccc(O)cc1)NC(=O)[C@H](CO)NC(=O)C(C)(C)NC(=O)[C@@H](NC(=O)[C@H](Cc1ccccc1)NC(=O)[C@@H](NC(=O)[C@H](C)NC(=O)[C@H](CC(=O)O)NC(=O)[C@@H](CCCNC(=N)N)NC(=O)[C@H](Cc1ccc(O)cc1)NC(=O)C(C)C)[C@@H](C)CC)[C@@H](C)O)C(C)C)[C@@H](C)CC)C(=O)N[C@@H](CO)C(=O)N[C@@H](CCCNC(=N)N)C(N)=O [Peptide 13, [Ibu^0,D-Arg^2,Aib^8,Abu^15,Nle^27]hGH-RH(1-29)NH2] (Isobutyryl-Y[dR]DAIFT[Aib]SYRKVL[Abu]QLSARKLLQDI[Nle]SR-NH2)"
3,0.04 ± 0.01 nM,"CCCC[C@H](NC(=O)[C@@H](NC(=O)[C@H](CC(=O)O)NC(=O)[C@H](CCC(N)=O)NC(=O)[C@H](CC(C)C)NC(=O)[C@H](CC(C)C)NC(=O)[C@H](CCCCN)NC(=O)[C@H](CCCNC(=N)N)NC(=O)[C@H](C)NC(=O)[C@H](CO)NC(=O)[C@H](CC(C)C)NC(=O)[C@H](CCC(N)=O)NC(=O)[C@H](CC)NC(=O)[C@H](CC(C)C)NC(=O)[C@@H](NC(=O)[C@H](CCCCN)NC(=O)[C@H](CCCNC(=N)N)NC(=O)[C@H](Cc1ccc(O)cc1)NC(=O)[C@H](CO)NC(=O)[C@H](CC(N)=O)NC(=O)[C@@H](NC(=O)[C@H](Cc1ccc(Cl)cc1)NC(=O)[C@@H](NC(=O)[C@H](C)NC(=O)[C@H](CC(=O)O)NC(=O)[C@@H](CCCNC(=N)N)NC(=O)[C@H](Cc1ccc(O)cc1)NC(=O)Cc1cccc2ccccc12)[C@@H](C)CC)[C@@H](C)O)C(C)C)[C@@H](C)CC)C(=O)N[C@@H](CO)C(=O)N[C@@H](CCCNC(=N)N)C(N)=O [Peptide 1, [Nac^0,D-Arg^2, Phe(pCl)^6,Abu^15, Nle^27]hGH-RH(1-29)NH2] ({Acetyl(1-naphthyl)}-Y[dR]DAI[Phe(4-Cl)]TNSYRKVL[Abu]QLSARKLLQDI[Nle]SR-NH2)"
